# Measurements published in patent US20130157949A1, “Novel Peptides for Wound Healing” (GENE SIGNAL INTERNATIONAL SA, priority 2010, published 2013).
# What was measured:
# trans-dermal wounds = assay: wound healing of trans-dermal wounds in mice, topical application; format: in vivo; settings: for % healing at day 1 post treatment / % healing at day 2 post treatment / % healing at day 3 post treatment / % healing at day 4 post treatment: topical 0.5 mg/ml (5 mg/kg), 1 application/day, 5 mm punch wounds; for speed of wound healing compared with Vehicle / 156A protein: topical 0.5 mg/ml, time course over 4 days
# Protocol: The vehicle (Batch A) was administered by topical application at a standardized volume of 10 ml/kg for all applications. The peptides of the invention, the protein 156A or the peptides 2, 6 and 9 were administered by topical application at the concentration of 0.5 mg/ml in the vehicle. The protocols of treatment were as it follows: • Group 1: (Batch A, Vehicle): 1 topical application 10 minutes after wounding • Group 2: (Peptide 7, 0.5 mg/ml): 1 topical application 10 minutes after wounding • Group 3: (Peptide 10, 0.5 mg/ml): 1 topical application 10 minutes after wounding • Group 4: (Peptide 11, 0.5 mg/ml): 1 topical application 10 minutes after wounding • Group 5: (Peptide 7B, 0.5 mg/ml): 1 topical application 10 minutes after wounding. • Group 6: (Peptide 2, 0.5 mg/ml): 1 topical application 10 minutes after wounding. • Group 7: (Peptide 6, 0.5 mg/ml): 1 topical application 10 minutes after wounding. • Group 8: (Peptide 9, 0.5 mg/ml): 1 topical application 10 minutes after wounding. • Group 9: (Protein 156A, 0.5 mg/mL): 1 topical application 10 minutes after wounding.
# Healthy female BALBC Swiss mice were anesthetized by IP injection of Ketamine-Xylazine (80 mg/kg-12 mg/kg; Ref. K-113, Sigma, France). Two trans-dermal wounds, each of 5 mm in width and about 1 to 2 mm in depth were realized in the right and the left flanks of each mouse using 5 mm punch.
# At D1, and 10 min post-injury of the animals, the mice were randomized into 9 groups of 3 mice each.
# All treatments were realized by topical application at the frequency of 1 topical application/day, for 4 days. Animals of group 1 were treated with the vehicle solution (Batch A). Animals of groups 2 to 9 were treated with the indicated peptide or with the 156A protein at a dose of 5 mg/kg.
# [1] = test system: human microvascular endothelial cells (HMEC); assay: in vitro angiogenesis assay (Matrigel, endothelial tube formation); format: cell-based; settings: for in vitro angiogenesis-inducing activity: 400 μg/ml final concentration, images at 6 h post incubation; for classification of in vitro angiogenesis inducing activity: 400 μg/ml, rank order among peptides
# Protocol: Angiogenesis of human microvascular endothelial cells (HMEC) was induced in vitro using a Matrigel assay described by Grant et α1 (1989, Cell, 1989; 58:933). This method is based on the differentiation of endothelial cells to form capillary structures on a Matrigel Matrix. Matrigel is prepared the Engelbreth-Holm-Swarm (EHS) mouse tumor, which represents a complex mixture of basement membrane proteins including type IV collagen, entactin, proteo-heparan sulfate and other growth factors.
# Briefly, 250 μl of Matrigel were transferred to each well of a 24-well culture plate and incubated at 37° C. for 30 min to allow for the matrix solution to solidify. HMEC grown in complete growth medium EGM-2MV were harvested by trypsin, suspended in the same growth medium and 500 μl containing 70 000 cells were added on top of the solidified Matrigel in each well and in the presence or absence of protein. Cells were maintained in a humidified atmosphere air containing 5% CO2 at 37° C. for 18-24 hrs. Endothelial tube formation was observed and photographed under an inverted light microscope.
# The designed small peptides 7 (SEQ ID NO: 1), 10 (SEQ ID NO: 3), and 11 (SEQ ID NO: 4) were synthesized and tested for their in vitro angiogenesis-inducing activities (as described in Methods here above).
# The results of the in vitro angiogenesis assay were presented in FIG. 1, using HMEC and 400 μg/ml final concentration of each peptide. Images were taken at 6 h post incubation.
# VEGFA mRNA = assay: VEGFA expression by real time quantitative PCR in HMEC; format: cell-based, human; settings: 400 μg/ml, 6 h, QPCR
# Protocol: After exposure to the indicated concentrations of peptide 7 or peptide 10 issued from the recombinant protein GS-156A or vehicle for 24 h, HMEC (5×10^5 cells/ml), total mRNA were isolated using NucleoSpin RNA II kit. RNA yields and purity were assessed by spectrophotometric analysis. The real-time RT-PCR was performed as previously described (Voghel et al., 2008). […] The real-time PCR reactions were carried out with the DNA Engine OPTICON 2 continuous fluorescence detector (MJ Research, Waltham, Mass., U.S.A.). The results were quantified using the equation: CopyTF:CopyGAPDH=2C(t)GAPDH−C(t)TF. All PCR products were analyzed by electrophoresis on a 1.5% agarose gel, visualized with ethidium bromide, and analyzed using the Genesnap 6.00.26 software (Syngene, Cambridge, U.K.). […]
# The influence of peptide 7 and peptide 10 on VEGFA expression was investigated. For that, HMEC were incubated with either peptide 7 (400 μg/ml final concentration), or peptide 10 (400 μg/ml final concentration) for 6 h, followed by measuring the expression of VEGFA by real time quantitative PCR (QPCR).
# Protein Kinase B (Akt) = assay: activation status of protein kinase B (pAkt) by western-blot in HMEC; format: cell-based, human; settings: 400 μg/ml, 10 min and 30 min post incubation, immunoblot
# Protocol: The activation status of pAkt was determined by western-blot using an anti-phosphoserine 473 pAkt antibody, and anti-GAPDH mAb as internal standard.
# The status of Akt in the HMEC following incubation with either peptide 7 or peptide 10 was investigated.
# MAPK (Erk1 and 2) = assay: activation status of MAPK (pErk1/2) by western-blot in HMEC; format: cell-based, human; settings: immunoblot pErk1/2
# Protocol: The activation status of MAPK was determined by western-blot using an anti-activated MAPK (pErk1/2) antibody, and anti-GAPDH mAb as internal standard.
# We have also investigated the status of the mitogen activated protein kinase (MAPK), as it is well established that it represents another cascade of intracellular signaling could be implicated in the regulation of VEGF expression.
# VEGFA protein = VEGFA protein by sandwich ELISA in HMEC culture medium; format: cell-based, human
# Protocol: Serum-deprived HMEC were incubated with different concentrations of peptide 7 or peptide 10 or vehicle […]. After 3 washes with ice-cold PBS, cells were suspended with the protein extraction buffer (PEB) (20 mM Tris-HCl pH 7.5, 150 mM NaCl, 1 mM EDTA, 1 mM EGTA, 1% Triton, 25 mM sodium pyrophosphate, 1 mM β-glycero-phosphate, 1 mM Na3Vo4, 1 μg/ml leupeptine, 1 μM PMSF). The protein content was measured by Bradford. VEGFA concentration in the culture medium or in the extracts was determined by human VEGFA Sandwich ELISA kit (Cell Signaling technology) according to the manufacturer's instructions.
# [2] = test system: trans-dermal wounds in diabetic mice; assay: wound healing in diabetic mice, subcutaneous injection beneath the wound; format: in vivo, ob/ob C57BL6/J mice; settings: 2 mg/ml or 5 mg/ml, sb injection 200 μl/day for 4 days, 8 mm punch wounds
# Protocol: Diabetic female ob/ob C57BL6/J mice were anesthetized by IP injection of Ketamine-Xylazine (80 mg/kg-12 mg/kg; Ref. K-113, Sigma, France). Two trans-dermal wounds, each of 8 mm in width and about 1 to 2 mm in depth were realized in the right flank of each mouse using 8 mm punch.
# At D1, and 10 min post-injury of the animals, the mice were randomized into 3 groups of 5 mice each.
# All treatments were realized by subcutaneous (sb) injections beneath the wounded area at the frequency of 1 sb injection/day, for 4 days. Animals of group 1 were injected with the vehicle solution (Batch A; 200 μl/injection, beneath the wounded area). Animals of groups 2 were sb injected with P7 solution in vehicle (2 mg of P7/ml of vehicle) (200 μl/injection; 16 mg/kg; beneath the wounded area). Animals of groups 3 were sb injected with P7 solution in vehicle (5 mg of P7/ml of vehicle) (200 μl/injection; 40 mg/kg; beneath the wounded area).
substance,measurement,setting,value
"ELDLQASL [Peptide 7B, fragment of the protein 156A, chemically synthesized]",% healing at day 1 post treatment,trans-dermal wounds,33.2%
same,% healing at day 2 post treatment,trans-dermal wounds,56.9%
same,% healing at day 3 post treatment,trans-dermal wounds,63.7%
same,% healing at day 4 post treatment,trans-dermal wounds,76.6%
same,speed of wound healing compared with Vehicle / 156A protein,trans-dermal wounds,healed faster than the wounds treated with Vehicle or with the 156A protein
"QSQKVPRQVQS [Peptide 11, fragment of the protein 156A, chemically synthesized]",in vitro angiogenesis-inducing activity,[1],strong in vitro angiogenesis-inducing activity
same,classification of in vitro angiogenesis inducing activity,[1],peptide 7>peptide 10>peptide 11
same,% healing at day 1 post treatment,trans-dermal wounds,41.9%
same,% healing at day 2 post treatment,trans-dermal wounds,52.1%
same,% healing at day 3 post treatment,trans-dermal wounds,58.4%
same,% healing at day 4 post treatment,trans-dermal wounds,64.4%
same,speed of wound healing compared with Vehicle / 156A protein,trans-dermal wounds,healed faster than the wounds treated with Vehicle or with the 156A protein
"VSKDVCRL [Peptide 10, fragment of the protein 156A, chemically synthesized]",in vitro angiogenesis-inducing activity,[1],strong in vitro angiogenesis-inducing activity
same,classification of in vitro angiogenesis inducing activity,[1],peptide 7>peptide 10>peptide 11
same,% healing at day 1 post treatment,trans-dermal wounds,42.8%
same,% healing at day 2 post treatment,trans-dermal wounds,61.3%
same,% healing at day 3 post treatment,trans-dermal wounds,65.6%
same,% healing at day 4 post treatment,trans-dermal wounds,78.9%
same,speed of wound healing compared with Vehicle / 156A protein,trans-dermal wounds,healed faster than the wounds treated with Vehicle or with the 156A protein
same,VEGFA mRNA higher than Control (no peptide),VEGFA mRNA,about 60%
same,level of activated Akt relative to Control,Protein Kinase B (Akt),much higher level of activated Akt
same,level of activation of Erk1 and 2 (MAPK) relative to Control,MAPK (Erk1 and 2),not significant variations in level of activation of Erk1 and 2
"TQECPVRTSLDRELDLQASL [Peptide 7, fragment of the protein 156A, chemically synthesized]",in vitro angiogenesis-inducing activity,[1],strong in vitro angiogenesis-inducing activity
same,classification of in vitro angiogenesis inducing activity,[1],peptide 7>peptide 10>peptide 11
same,% healing at day 1 post treatment,trans-dermal wounds,52.8%
same,% healing at day 2 post treatment,trans-dermal wounds,60.1%
same,% healing at day 3 post treatment,trans-dermal wounds,65.6%
same,% healing at day 4 post treatment,trans-dermal wounds,82.9%
same,speed of wound healing compared with Vehicle / 156A protein,trans-dermal wounds,healed faster than the wounds treated with Vehicle or with the 156A protein
same,VEGFA mRNA higher than Control (no peptide),VEGFA mRNA,about 170%
same,increases of VEGFA-biosynthesis and excretion,VEGFA protein; 400 μg/ml,about 2 folds
same,increase in VEGF protein within the culture medium (peak),"VEGFA protein; 400 μg/ml of peptide, p<0.001",about 97%
same,level of activated Akt relative to Control,Protein Kinase B (Akt),much higher level of activated Akt
same,level of activation of Erk1 and 2 (MAPK) relative to Control,MAPK (Erk1 and 2),not significant variations in level of activation of Erk1 and 2
same,healing of the wounds in diabetic mice compared to control,[2],strong healing of the wounds
"FQRLLKQ [Peptide 9, comparative fragment of the 156A protein without enhanced efficiency]",speed of wound healing compared with Vehicle / 156A protein,trans-dermal wounds,healed slower than the wounds treated with Vehicle
"RLNRSDSDSSTLAKK [Peptide 2, comparative fragment of the 156A protein without enhanced efficiency]",speed of wound healing compared with Vehicle / 156A protein,trans-dermal wounds,healed slower than the wounds treated with Vehicle
"RSLRVKRTVCQSVLR [Peptide 6, comparative fragment of the 156A protein without enhanced efficiency]",speed of wound healing compared with Vehicle / 156A protein,trans-dermal wounds,healed slower than the wounds treated with Vehicle
